Each structure is given as a SMILES string. Like-named read-outs stand apart in the source and are kept apart here.

One test has as its target NRAS (Homo sapiens (Human), UniProt P01111). In words: SOS-catalyzed nucleotide exchange assay (GNE), NRAS-WT. The class given is biochemical. As to conditions: TR-FRET, 60 min preincubation. The source says:
(§1) Procedure for SOS-Catalyzed Nucleotide Exchange Assay for KRAS-WT, G12C/D/V/A/R/S, G13D, Q61H, HRAS-WT, and NRAS-WT
(§2) Recombinant KRAS-G12C protein used in this assay has an additional triple mutation (C51S/C80L/C118S). Whereas KRAS-WT, G12D/V/A/S/R, G13D, Q61H, HRAS and NRAS are in context of their WT protein sequence background. Specifically, the SOS-catalyzed nucleotide exchange assay utilizes a preformed TR-FRET complex containing a specific biotinylated RAS protein (KRAS-WT, G12C/V/D/A/S/R, G13D, Q61H, HRAS-WT, NRAS-WT; described above) with Bodipy-GDP, and Terbium-streptavidin. Compounds are preincubated with this complex for 60 minutes. Subsequently, recombinant human SOS protein and unlabeled GTP are added to initiate the exchange reaction. Small molecule inhibitors stabilize the Bodipy-GDP complex whereas the untreated protein rapidly exchanges Bodipy-GDP for unlabeled GTP resulting in reduced TR-FRET signal.
(§3) To assemble the preformed TR-FRET complexes, each biotinylated RAS protein is diluted to 2 μM in an EDTA Buffer (20 mM HEPES pH 7.5, 50 mM sodium chloride, 10 mM EDTA, and 0.01% Tween) and incubated at room temperature for one hour. This mixture is then further diluted to 90 nM in an Assay Buffer (20 mM HEPES pH 7.5, 150 mM sodium chloride, 10 mM magnesium chloride, and 0.005% Tween) containing 15 nM of Terbium-Streptavidin (Invitrogen, catalog #PV3577) and 900 nM of Bodipy-GDP (Invitrogen, catalog #G22360) and incubated at room temperature for six hours. It should be noted that this preformed TR-FRET complex for each of the RAS protein were made ahead of time, aliquoted and stored at −80° C. until the day of the experiment.
(§4) Each test compound (10 mM stock in DMSO) is diluted in DMSO to make a final-10-point, 3-fold dilution and is acoustically dispensed into a 384-well assay plate (Corning, catalog #3820) using an Echo 550 (Labcyte). Each well of the assay plate receives 3 μL of a specific 3×RAS preformed TR-FRET complex and 3 μL of Assay Buffer and is incubated at room temperature for 60 minutes (preincubation time). Each well then receives 3 μL of 3× recombinant human SOS protein and GTP (Sigma, G8877) in Assay Buffer and is incubated at room temperature for 30 minutes (G13D), 60 minutes (KRAS WT/G12C/D, H/NRAS) or 90 minutes for G12A/R/S/V and Q61H. The final reaction in each well of 9 μL consists of 3 mM GTP, specific Ras and SOS proteins in the following concentrations: KRAS-G12C/SOS=3 nM/40 nM, KRAS-WT and G12D/SOS=1 nM/40 nM, KRAS-G12V/SOS=1.25 nM/160 nM, KRAS-G12A/S/SOS=1 nM/160 nM, KRAS-G12R/SOS=1 nM/320 nM, KRAS-Q61H/SOS=1 nM/320 nM, KRAS-G13D/SOS=1.25 nM/[…], HRAS-WT and NRAS-WT=1.25 nM/40 nM.
(§5) The time-resolved fluorescence resonance energy transfer (TR-FRET) signal is measured on an Envision (PerkinElmer) plate reader: Excitation filter=340 nm; emission1=495 nm; emission2=520 nm; dichroic mirror=D400/D505; delay time=[…]. The signal of each well is determined as the ratio of the emission at 520 nm to that at 495 nm. Percent effect of each well is determined after normalization to control wells containing DMSO (no effect) or a saturating concentration of inhibitor (max effect). The apparent effect as a function of compound concentration is fit to a four-parameter logistic equation.
For orientation: TR-FRET usually uses a lanthanide donor and a delayed reading to cut background.

A further test addresses KRAS G12V (Homo sapiens (Human), UniProt P01116, G12V). In words: SOS-catalyzed nucleotide exchange assay (GNE), KRAS G12V. The test is classed as biochemical. As to conditions: TR-FRET, 60 min preincubation.
From the text: as §1, §2, §3, §4, §5

For test [1], the system named is SW620 cells (homozygous KRAS-G12V). In words: Cellular phospho-ERK assay, SW620 cells. The class given is cell-based. As to conditions: p-ERK vs. total ERK, read-out: SW620 pERK IC50. How it is done: Procedure for Cellular Phospho-ERK Assay in KRAS Wild Type and Mutant (G12D, G12V) Cell Lines
MKN-1 cells (JCRB JCRB0252) containing amplified wild-type KRAS, were cultured in growth medium that contains RPMI 1640-GlutaMAX™-I (ThermoFisher Scientific 61870) containing 10% heat inactivated fetal bovine serum (ThermoFisher Scientific 10091148), 1 mM sodium pyruvate and 10 mM HEPES. AsPC-1 cells (ATCC® CRL-1682™), containing homozygous KRAS-G12D activating mutation, were cultured in T150 flask in growth medium (RPMI medium 1640-GlutaMAX™-I (ThermoFisher Scientific 61870) containing 10% fetal bovine serum (ThermoFisher Scientific 10091148)). SW620 cells (ATCC® CRL-227™) containing homozygous KRAS-G12V activating mutation, were cultured in growth medium that contains RPMI 1640-GlutaMAX™-I (ThermoFisher Scientific 61870) containing 10% heat inactivated fetal bovine serum (ThermoFisher Scientific 10091148).
Cells for the assay were harvested in growth medium after TrypLE (ThermoFisher scientific 12604021) digestion and were seeded in a 384-well collagen coated cell culture plate (Corning 356702) at a density of 10,000-15,000 cells/[…]/well, and incubated at 37° C., 5% CO2 overnight. The compound (with 10 mM stock concentration) dose-response titrations were prepared [30 μM final ERK detection assay concentration and 1:3 dilutions, 10-point dose response] and appropriate amounts (270 nL) of test compounds were dispensed in a 384-well intermediate plate using an Echo 550 liquid handler. 30 μL/well of RPMI medium 1640-GlutaMAX™-I was added to the intermediate plate and the contents of the intermediate plate (10 μL/well) were then transferred to the 384-well collagen coated cell culture plate, which was incubated at 37° C., 5% CO2 for 2 h. After removal of medium from the collagen coated cell culture plate, cells were lysed in lysis buffer from Alpha SureFire® Ultra™ Multiplex p-ERK and total ERK assay kit (PerkinElmer MPSU-PTERK) containing Halt™ Protease and Phosphatase inhibitor cocktail (ThermoFisher Scientific 78446) at room temperature with constant shaking at 300 rpm for 30 minutes. The cell lysates were then transferred to an OptiPlate-384 plate (PerkinElmer 6005620), and the phosphorylation of ERK (p-ERK) and total ERK levels were detected by Alpha SureFire® Ultra™ Multiplex p-EEK kit and total ERK assay kit (PerkinElmer MPSU-PTERK) following the manufacturer's protocol. Assay plates were read on a EnVision Multimode Plate Reader (PerkinElmer), and the ratio of p-ERK vs. total ERK in each well was used as the final readout. Dose response curves were analyzed using a 4-parameter logistic model to calculate IC50 values using Spotfire software.

Sequence of KRAS G12V (P01116 other isoform, or with tags, fused parts or gaps G12V (already in the parent)): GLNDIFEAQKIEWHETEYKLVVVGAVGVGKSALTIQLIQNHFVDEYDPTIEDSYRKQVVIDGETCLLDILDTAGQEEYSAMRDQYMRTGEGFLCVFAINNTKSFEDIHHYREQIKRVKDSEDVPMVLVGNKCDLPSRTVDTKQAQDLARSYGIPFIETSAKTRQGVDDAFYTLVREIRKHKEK
Sequence of NRAS (P01111 other isoform, or with tags, fused parts or gaps): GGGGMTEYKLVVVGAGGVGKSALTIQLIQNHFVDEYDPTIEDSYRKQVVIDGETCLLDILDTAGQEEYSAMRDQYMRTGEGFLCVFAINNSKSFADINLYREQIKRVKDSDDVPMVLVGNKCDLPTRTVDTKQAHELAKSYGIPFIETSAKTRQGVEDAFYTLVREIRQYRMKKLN

As for `F/C=C1/CN2CCC[C@@]2(COc2nc3c4c(nc(-c5c(C6CC6)c(Cl)cc6[nH]ncc56)c(F)c4n2)OC[C@@H]2COCCCN32)C1` [Ex-1, (8aS)-5-(6-chloro-5-cyclopropyl-1H-indazol-4-yl)-4-fluoro-2-(((S,Z)-2-(fluoromethylene)tetrahydro-1H-pyrrolizin-7a(5H)-yl)methoxy)-8a,9,12,13-tetrahydro-8H,11H-7,10-dioxa-1,3,6,13a-tetraazanaphtho[1,8-ab]heptalene], the IC50 was greater than 11100 nM against NRAS, 1.3 nM against KRAS G12V and 2.6 nM in test [1] (2 h).
The corresponding values for `CCc1c(F)ccc2cc3[nH]ncc3c(-c3nc4c5c(nc(OC[C@@]67CCCN6C[C@H](F)C7)nc5c3F)N3CCCOC[C@H]3CO4)c12` [Ex-2, (8aS)-5-(5-ethyl-6-fluoro-1H-benzo[f]indazol-4-yl)-4-fluoro-2-(((2R,7aS)-2-fluorotetrahydro-1H-pyrrolizin-7a(5H)-yl)methoxy)-8a,9,12,13-tetrahydro-8H,11H-7,10-dioxa-1,3,6,13a-tetraazanaphtho[1,8-ab]heptalene] are 7020 nM, 1.3 nM and 2.4 nM.
`Fc1c(-c2c(C3CC3)c(Cl)cc3[nH]ncc23)nc2c3c(nc(OC[C@@]45CCCN4C[C@H](F)C5)nc13)N1CCCOC[C@H]1CO2` [Ex-3, (8aS)-5-(6-chloro-5-cyclopropyl-1H-indazol-4-yl)-4-fluoro-2-(((2R,7aS)-2-fluorotetrahydro-1H-pyrrolizin-7a(5H)-yl)methoxy)-8a,9,12,13-tetrahydro-8H,11H-7,10-dioxa-1,3,6,13a-tetraazanaphtho[1,8-ab]heptalene]: the half-inhibitory concentration (IC50) was determined as 3 nM against KRAS G12V and 3.9 nM in test [1] (Homo sapiens, SW-620, 2 h).
On to `CCc1c(F)ccc2cc3[nH]ncc3c(-c3nc4c5c(nc(OC[C@@]67CCCN6C/C(=C\F)C7)nc5c3F)N3CCCOC[C@H]3CO4)c12` [Ex-4, (8aS)-5-(5-ethyl-6-fluoro-1H-benzo[f]indazol-4-yl)-4-fluoro-2-(((S,Z)-2-(fluoromethylene)tetrahydro-1H-pyrrolizin-7a(5H)-yl)methoxy)-8a,9,12,13-tetrahydro-8H,11H-7,10-dioxa-1,3,6,13a-tetraazanaphtho[1,8-ab]heptalene], for which the 50% inhibitory concentration (IC50) is 2820 nM on NRAS; 0.83 nM on KRAS G12V; less than 1.5 nM in test [1] (Homo sapiens, SW-620, 2 h).
The corresponding values for `F/C=C1\CN2CCC[C@@]2(COc2nc3c4c(nc(-c5c(C6(F)CC6)c(Cl)cc6[nH]ncc56)c(F)c4n2)OC[C@@H]2COCCCN32)C1` [Ex-5, (8aS)-5-(6-chloro-5-(1-fluorocyclopropyl)-1H-indazol-4-yl)-4-fluoro-2-(((S,Z)-2-(fluoromethylene)tetrahydro-1H-pyrrolizin-7a(5H)-yl)methoxy)-8a,9,12,13-tetrahydro-8H,11H-7,10-dioxa-1,3,6,13a-tetraazanaphtho[1,8-ab]heptalene] are greater than 11100 nM, 0.98 nM and 1.3 nM.
`CCc1c(F)ccc2cc3[nH]nc(C)c3c(-c3nc4c5c(nc(OC[C@@]67CCCN6C[C@H](F)C7)nc5c3F)N3CCCOC[C@H]3CO4)c12` [Ex-6, (8aS)-5-(5-ethyl-6-fluoro-3-methyl-1H-benzo[f]indazol-4-yl)-4-fluoro-2-(((2R,7aS)-2-fluorotetrahydro-1H-pyrrolizin-7a(5H)-yl)methoxy)-8a,9,12,13-tetrahydro-8H,11H-7,10-dioxa-1,3,6,13a-tetraazanaphtho[1,8-ab]heptalene]: the IC50 was 10000 nM against NRAS; 1.5 nM at KRAS G12V; 3.4 nM in test [1] (Homo sapiens, SW-620, 2 h).
Turning to `CCc1c(F)ccc2cc3[nH]nc(C)c3c(-c3nc4c5c(nc(OC[C@@]67CCCN6C/C(=C\F)C7)nc5c3F)N3CCCOC[C@H]3CO4)c12` [Ex-7, (8aS)-5-(5-ethyl-6-fluoro-3-methyl-1H-benzo[f]indazol-4-yl)-4-fluoro-2-(((S,Z)-2-(fluoromethylene)tetrahydro-1H-pyrrolizin-7a(5H)-yl)methoxy)-8a,9,12,13-tetrahydro-8H,11H-7,10-dioxa-1,3,6,13a-tetraazanaphtho[1,8-ab]heptalene], the IC50 turned out to be 8980 nM at NRAS, 2.8 nM against KRAS G12V and 2.5 nM in test [1] (2 h).

The IC50 is the concentration that inhibits the measured activity by half.

The record behind these values is patent US12466840B2, “Small molecule inhibitors of KRAS proteins” (Merck Sharp & Dohme LLC, priority 2023, dated 2025).
